Reference: PMC5658359, “A potent small-molecule inhibitor of the DCN1-UBC12 interaction that selectively blocks cullin 3 neddylation” (Nature Communications, 2017)
Converted amounts (≈) assume the structure as drawn. “And” between values parts separate entries of the source, which are not always exact repeats. Equal values may be shown once. Read-outs that look alike come from different tables or passages of the source. Where a SMILES comes first, the peptide text is derived from it. [ ]: non-standard residue; d: D form. Ala(6-iPr-benzothiazol-2-yl) = CC(C)c1ccc2nc(C[C@H](N)C(=O)O)sc2c1; Ala(benzothiazol-2-yl) = N[C@@H](Cc1nc2ccccc2s1)C(=O)O; Phe(3-CF3) = N[C@@H](Cc1cccc(C(F)(F)F)c1)C(=O)O; Phe(3,5-F2) = N[C@@H](Cc1cc(F)cc(F)c1)C(=O)O; Phe(3-CN) = N#Cc1cccc(C[C@H](N)C(=O)O)c1; 2Nal = N[C@@H](Cc1ccc2ccccc2c1)C(=O)O; hPhe = N[C@@H](CCc1ccccc1)C(=O)O

Tests used:
DCN3 = molecular target: T1, DCN3 (Homo sapiens, UniProt Q8IWE4); test: Label-free BLI assay, DCN3; type: binding; conditions: concentrations up to 10 µM
T1 construct: DCN2 (residues 62–259), DCN3 (residues 86–304), DCN4 (residues 102–292) and DCN5 (residues 47–237); His6-TEV (N, cleaved yes); made in house; host or cells: Rosetta2 cells (E. coli)
T1 sequence (Q8IWE4 86-304): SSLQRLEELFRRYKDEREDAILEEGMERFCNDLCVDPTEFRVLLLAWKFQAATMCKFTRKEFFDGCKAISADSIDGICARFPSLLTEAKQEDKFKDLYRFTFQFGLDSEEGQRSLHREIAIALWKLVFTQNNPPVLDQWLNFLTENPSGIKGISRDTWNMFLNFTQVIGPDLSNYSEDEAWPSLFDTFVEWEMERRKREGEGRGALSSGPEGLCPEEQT

DCN4 = molecular target: T2, DCN4 (Homo sapiens, UniProt Q92564); test: Label-free BLI assay, DCN4; type: binding; conditions: concentrations up to 10 µM
T2 construct: DCN2 (residues 62–259), DCN3 (residues 86–304), DCN4 (residues 102–292) and DCN5 (residues 47–237); His6-TEV (N, cleaved yes); made in house; host or cells: Rosetta2 cells (E. coli)
T2 sequence (Q92564 102-292): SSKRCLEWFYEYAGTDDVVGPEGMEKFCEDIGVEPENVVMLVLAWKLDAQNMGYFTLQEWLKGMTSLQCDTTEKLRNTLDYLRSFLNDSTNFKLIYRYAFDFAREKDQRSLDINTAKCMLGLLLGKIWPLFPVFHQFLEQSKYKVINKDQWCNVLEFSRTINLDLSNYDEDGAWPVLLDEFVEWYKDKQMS

DCN5 = molecular target: T3, DCN5 (Homo sapiens, UniProt Q9BTE7); test: Label-free BLI assay, DCN5; type: binding; conditions: concentrations up to 10 µM
T3 construct: DCN2 (residues 62–259), DCN3 (residues 86–304), DCN4 (residues 102–292) and DCN5 (residues 47–237); His6-TEV (N, cleaved yes); made in house; host or cells: Rosetta2 cells (E. coli)
T3 sequence (Q9BTE7 47-237): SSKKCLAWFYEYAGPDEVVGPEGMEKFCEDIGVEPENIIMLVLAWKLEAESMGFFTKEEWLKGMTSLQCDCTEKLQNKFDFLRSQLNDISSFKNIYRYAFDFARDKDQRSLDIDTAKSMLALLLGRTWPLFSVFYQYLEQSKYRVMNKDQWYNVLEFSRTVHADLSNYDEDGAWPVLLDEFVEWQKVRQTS

NRF2 mRNA = test: qRT-PCR of NRF2 mRNA in THLE2 cells; type: cell-based; conditions: THLE2, 10 µM
Description: Total RNA in treated cells was isolated with the RNeasy Mini Kit (Qiagen, Germantown, MD). RNA was reverse transcribed into complementary DNA (cDNA) using high capacity RNA-to-cDNA kit (Applied Biosystems, Carlsbad, California). […] GAPDH was used as an internal reference. […] Error bars correspond to SD from three independent experiments.

DCN1 = DCN1 (Homo sapiens, UniProt Q96GG9); test: Competitive fluorescence polarization (FP) binding assay with probe 46, DCN1; set-up: Human DCN1 (residues 58–259) were cloned into a pDEST17 plasmid containing an N-terminal His6 tag; made in house; host or cells: Rosetta2 cells (E. coli); conditions: for Ki: competitive FP, probe 46 5 nM, DCN1 50 nM
Chain of DCN1 (Q96GG9 58-259): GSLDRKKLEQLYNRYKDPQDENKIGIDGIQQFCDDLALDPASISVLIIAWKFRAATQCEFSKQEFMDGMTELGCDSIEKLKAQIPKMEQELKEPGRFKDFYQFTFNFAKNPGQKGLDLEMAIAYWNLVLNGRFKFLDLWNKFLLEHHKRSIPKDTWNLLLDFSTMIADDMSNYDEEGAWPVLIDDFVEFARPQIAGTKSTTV
Method: The FP competitive binding experiments were performed to determine the binding affinities of all synthesized DCN1 inhibitors. […] Serial dilutions of DCN1 or DCN2 protein were mixed with the probe (46) to a final volume of 200 μl in the assay buffer (100 mM phosphate buffer, pH = 6.5, with 0.02% Tween-20 and 2% DMSO). The final probe concentration was 5 nM in both DCN1 and DCN2 assays. Plates were incubated at room temperature for 30 min with gentle shaking for equilibrium.
The IC50 and Ki values of compounds were determined in competitive binding experiments. Mixtures of compounds in DMSO (4 μl) and of pre-incubated protein/probe complex solution (196 μl) in the assay buffer were added into assay plates that were incubated at room temperature for 30 min with gentle shaking. Final concentrations of DCN1 protein and fluorescent probe (46) were 50 and 5 nM, respectively. […] FP values were measured as described above. IC50 values were determined by nonlinear regression fitting of the competition curves using the dose response inhibition equation (four parameters, variable slopes) included in the Prism/GraphPad software. K i values were calculated using the methods described earlier.

[1] = thermodynamic from solid
Method: (§1) The equilibrium aqueous solubility of an individual compound at different pH values was determined with a small-scale shake-flask method in Eppendorf tubes. Compounds were added as powder in excess to Britton-Robinson buffer at pH 2.0 or phosphate buffer at pH 7.4 until heterogeneous suspensions were obtained. Suspensions containing excessive compound powder were sonicated in a water bath for 30 min followed by incubation at room temperature with shaking for 24 h to achieve thermodynamic equilibrium. […] Supernatants obtained were filtered using Millipore MultiScreen filter plates equipped with 0.45 µm membranes. Compound concentrations in the saturated solutions were measured by UV spectroscopy at the maximum absorption wavelengths of each compound that were pre-determined by a spectrum scan.

[2] = Equilibrium aqueous solubility, small-scale shake-flask method; conditions: for solubility / solubility at 24 h: thermodynamic from solid
Method: as §1

[3] = Britton-Robinson buffer, pH 2.02, aqueous buffer
[4] = phosphate buffer, pH 7.4, aqueous buffer

SMILES: CCC(=O)N[C@H](Cc1nc2ccc(C(C)C)cc2s1)C(=O)N[C@@H](CNC(=O)CCN1CCOCC1)C1CCCCC1 [DI-591DD]
- binding to DCN3 (in words) (DCN3): no appreciable binding
- binding to DCN4 (in words) (DCN4): no appreciable binding
- binding to DCN5 (in words) (DCN5): no appreciable binding
- mRNA level of NRF2 (in words) (NRF2 mRNA): no effect

SMILES: CC[C@H](C)[C@H](NC(=O)[C@H](CCSC)NC(C)=O)C(=O)N[C@@H](CCCCN)C(=O)N[C@@H](CC(C)C)C(N)=O [compound 9] (Ac-MIKL-NH2)
- Ki (DCN1): 50 µM

SMILES: CC[C@H](C)[C@H](NC(=O)[C@H](CCSC)NC(C)=O)C(=O)N[C@@H](CCCCN)C(N)=O [compound 10] (Ac-Met-Ile-Lys-NH2)
- binding to DCN1 (in words) (DCN1; at concentrations up to 1,000 µM): no appreciable binding
- Ki (DCN1): > 1000 µM

SMILES: CC[C@H](C)[C@H](NC(=O)[C@H](CCc1ccccc1)NC(C)=O)C(=O)N[C@@H](CCCCN)C(=O)N[C@@H](CC(C)C)C(N)=O [compound 12] (Ac-[hPhe]IKL-NH2)
- factor by which binding affinity to DCN1 is decreased (DCN1; homophenylalanine in place of Met1, compared with 9/11): 6

SMILES: CC[C@H](C)[C@H](NC(=O)[C@H](Cc1cccc(C#N)c1)NC(C)=O)C(=O)N[C@@H](CCCCN)C(=O)N[C@@H](CC(C)C)C(N)=O [compound 16] (Ac-[Phe(3-CN)]IKL-NH2)
- Ki (DCN1): > 1000 µM

SMILES: CC[C@H](C)[C@H](NC(=O)[C@H](Cc1cccc(C(F)(F)F)c1)NC(C)=O)C(=O)N[C@@H](CCCCN)C(=O)N[C@@H](CC(C)C)C(N)=O [compound 17] (Ac-[Phe(3-CF3)]IKL-NH2)
- Ki (DCN1): > 1000 µM

SMILES: CC[C@H](C)[C@H](NC(=O)[C@H](Cc1cc(F)cc(F)c1)NC(C)=O)C(=O)N[C@@H](CCCCN)C(=O)N[C@@H](CC(C)C)C(N)=O [compound 20] (Ac-[Phe(3,5-F2)]IKL-NH2)
- Ki (DCN1): 82 ± 9.1 µM

SMILES: CC[C@H](C)[C@H](NC(=O)[C@H](Cc1c[nH]c2ccccc12)NC(C)=O)C(=O)N[C@@H](CCCCN)C(=O)N[C@@H](CC(C)C)C(N)=O [compound 21] (Ac-WIKL-NH2)
- Ki (DCN1): 82 µM

SMILES: CC[C@H](C)[C@H](NC(=O)[C@H](Cc1ccc2ccccc2c1)NC(C)=O)C(=O)N[C@@H](CCCCN)C(=O)N[C@@H](CC(C)C)C(N)=O [compound 23] (Ac-[2Nal]IKL-NH2)
- times more potent than 11 in binding to DCN1 (DCN1; comparator 11): 11 times

SMILES: CC[C@H](C)[C@H](NC(=O)[C@H](Cc1nc2ccccc2s1)NC(C)=O)C(=O)N[C@@H](CCCCN)C(=O)N[C@@H](CC(C)C)C(N)=O [compound 24] (Ac-[Ala(benzothiazol-2-yl)]IKL-NH2)
- solubility ([1]; pH 2.02, aqueous buffer): 1480 µM (≈ 912 µg/mL)
- solubility ([1]; pH 7.4, aqueous buffer): 251 µM (≈ 155 µg/mL)

SMILES: CC[C@H](C)[C@H](NC(=O)[C@H](Cc1nc2cc(Cl)ccc2s1)NC(C)=O)C(=O)N[C@@H](CCCCN)C(=O)N[C@@H](CC(C)C)C(N)=O [compound 25]
- times less potent than 24 in binding to DCN1 (DCN1; comparator 24): 17 times

SMILES: CC[C@H](C)[C@H](NC(=O)[C@H](Cc1nc2ccc(Cl)cc2s1)NC(C)=O)C(=O)N[C@@H](CCCCN)C(=O)N[C@@H](CC(C)C)C(N)=O [compound 26]
- times more potent than 24 in binding to DCN1 (DCN1; comparator 24): 4 times

SMILES: CC[C@H](C)[C@H](NC(=O)[C@H](Cc1nc2ccc(C(C)C)cc2s1)NC(C)=O)C(=O)N[C@@H](CCCCN)C(=O)N[C@@H](CC(C)C)C(N)=O [compound 27] (Ac-[Ala(6-iPr-benzothiazol-2-yl)]IKL-NH2)
- aqueous solubility (in words) [2]: poor
- solubility ([2]; pH 2.02, aqueous buffer): 227 µM (≈ 150 µg/mL)
- solubility ([2]; pH 7.4, aqueous buffer): 31 µM (≈ 20.5 µg/mL)
- times more potent than 9 in binding to DCN1 (DCN1; comparator tetrapeptide 9): > 10,000 times
- Ki (DCN1): 0.0047 ± 0.0014 µM

SMILES: CC[C@H](C)[C@H](NC(=O)[C@H](Cc1nc2ccc(C(C)C)cc2s1)NC(C)=O)C(=O)N[C@@H](CCCCN)C(N)=O [compound 28]
- solubility ([2]; pH 2.02, aqueous buffer): > 20000 µM
- solubility ([2]; pH 7.4, aqueous buffer): 7470 µM (≈ 4090 µg/mL)
- times less potent than 27 in binding to DCN1 (DCN1; comparator 27): 37 times
- Ki (DCN1): 0.174 ± 0.023 µM

SMILES: CC[C@H](C)[C@H](NC(=O)[C@H](Cc1nc2ccc(C(C)C)cc2s1)NC(C)=O)C(N)=O [compound 29]
- solubility at 24 h [2, 3]: 1050 µM (≈ 440 µg/mL)
- solubility at 24 h [2, 4]: 1280 µM (≈ 535 µg/mL)
- Ki (DCN1): 0.292 µM

SMILES: CC[C@H](C)[C@@H](CN)NC(=O)[C@H](Cc1nc2ccc(C(C)C)cc2s1)NC(C)=O [compound 30]
- solubility at 24 h ([2]; Britton-Robinson buffer, pH 2, aqueous buffer): > 20000 µM
- solubility at 24 h [2, 3]: > 20000 µM
- solubility at 24 h [2, 4]: > 20000 µM
- Ki (DCN1): 0.066 µM and 0.0664 µM
